Results on 6 compounds are retold here after patent publication US20230295152A1 (SENDA BIOSCIENCES, INC., priority 2019, published 2023).

SMILES strings stand for the structures. A value given as a limit tells only on which side of the number the result lay.

The nature of data set [1]: In vivo PK study in male Sprague Dawley rats. Particulars: rats; for AUC(0-t): read-out: AUCLast Mean; for bioavailability: read-out: Bioavailability. How it is done: (§1) The studies were conducted in male Sprague Dawley rats, three rats per group, or male CD1 mice, three mice per group. Compounds were dosed 1.0 mg/Kg i.v. (vehicle ethanol: % PEG400 in deionized water, in proportions suitable for dosing a clear solution) and 3.0 mg/kg or 10 mg/kg p.o. (vehicle: 1% methyl cellulose: 1,500 cP in DI water (w/v)). A11 animals had free access to food and water. Rat i.v. PK time points: Plasma: 0.083, 0.25, 0.5, 1, 2, 4, 8 and 24 h; Rat p.o. PK time points: Plasma: 0.25, 0.5, 1, 2, 4, 8 and 24 h. Mouse i.v. PK time points: Plasma: 0.083, 0.25, 0.5, 1, 2, 4, 8, 24, and 48 h; Mouse p.o. PK time points: Plasma: 0.25, 0.5, 1, 2, 4, 8, 24, and 48 h. Concentrations of compound in the plasma samples were analyzed using a LC-MS/MS method. WinNonlin (Phoenix™, version 6.1) or other similar software was used for pharmacokinetic calculations.

Data set [2] can be described thus: Caco-2 Permeability Assay. To be noted: human; for Papp A→B at 2 h, 1 μM: Caco-2, pH 7.4, apical to basolateral, read-out: Caco2 Papp (AB); for Papp B→A at 2 h, 1 μM: Caco-2, pH 7.4, basolateral to apical, read-out: Caco2 Papp (BA). Format: in vitro ADME. As for the experimental part:
Preparation of Caco-2 Cells: 50 μL and 25 mL of cell culture medium were added to each well of the Transwell insert and reservoir, respectively. The HTS transwell plates were incubated at 37° C., 5% CO2 for 1 hour before cell seeding. Caco-2 cells were diluted to 6.86×10^5 cells/mL with culture medium and 50 μL of cell suspension were dispensed into the filter well of the 96-well HTS Transwell plate. Cells were cultivated for 14-18 days in a cell culture incubator at 37° C., 5% CO2, 95% relative humidity. Cell culture medium was replaced every other day, beginning no later than 24 hours after initial plating.
Assessment of Cell Monolayer Integrity: Medium was removed from the reservoir and each Transwell insert and replaced with prewarmed fresh culture medium. Transepithelial electrical resistance (TEER) across the monolayer was measured using Millicell Epithelial Volt-Ohm measuring system (Millipore, USA). The Plate was returned to the incubator once the measurement was done. The TEER value was calculated according to the following equation:
TEER measurement(ohms)×Area of membrane(cm^2)=TEER value(ohm·cm^2)
TEER value should be greater than 230 ohm·cm^2, which indicates the well-qualified Caco-2 monolayer.
Preparation of Solutions: 2 mM stock solutions in DMSO of control compounds were prepared and diluted with HBSS (10 mM HEPES, pH 7.4) to get 10 μM working solution. 0.2 mM stock solutions of test compounds in DMSO were prepared and diluted with HBSS (10 mM HEPES, pH 7.4 with 0.5% BSA) to get 1 μM working solution. Metoprolol, erythromycin and cimetidine were used as control compounds.
Performing the Drug Transport Assay: The Caco-2 plate was removed from the incubator. The monolayer was washed twice with pre-warmed HBSS (10 mM HEPES, pH 7.4). The plate was incubated at 37° C. for 30 minutes. To determine the rate of drug transport in the apical to basolateral direction, 125 μL of the working solution was added to the Transwell insert (apical compartment). A 50 μL sample was transferred immediately from the apical compartment to 200 μL of acetonitrile containing IS (100 nM alprazolam, 200 nM Caffeine and 100 nM tolbutamide) in a new 96-well plate as the initial donor sample (A-B) and it was vortexed at 1000 rpm for 10 minutes. The wells in the receiver plate (basolateral compartment) were filled with 235 μL of transport buffer. To determine the rate of drug transport in the basolateral to apical direction, 285 μL of the working solution were added to the receiver plate wells (basolateral compartment). A 50 μL sample was transferred immediately from the basolateral compartment to 200 μL of acetonitrile containing IS (100 nM alprazolam, 200 nM Caffeine and 100 nM tolbutamide) in a new 96-well plate as the initial donor sample (B-A) and it was vortexed at 1000 rpm for 10 minutes. The Transwell insert (apical compartment) was filled with 75 μL of transport buffer. The apical to basolateral direction and the basolateral to apical direction need to be done at the same time. The plates were incubated at 37° C. for 2 hours. At the end of the incubation, 50 μL samples from donor sides (apical compartment for Ap→B1 flux, and basolateral compartment for B1→Ap) and receiver sides (basolateral compartment for Ap→B1 flux, and apical compartment for B1→Ap) were transferred to wells of a new 96-well plate, followed by the addition of 4 volume of acetonitrile containing IS (100 nM alprazolam, 200 nM Caffeine and 100 nM tolbutamide). Samples were vortexed for 10 minutes, 50 μL samples were transferred to wells of a new 96-well plate, followed by the addition of 50 μL Hepes and 200 μL IS. A11 samples were vortexed for 10 minutes, and then centrifuged at 3,220 g for 40 minutes. An aliquot of 150 μL of the supernatant was mixed with an appropriate volume of ultra-pure water before LC-MS/MS analysis.
Data analysis: All calculations were carried out using Microsoft Excel. Peak areas were determined from extracted ion chromatograms. […]

Data set [3] in a line: Hepatocyte Stability Assay, mouse. Note: tested at 1 µM. To be noted: mouse hepatocytes. Format: in vitro ADME. How it is done: Example 7: Hepatocyte Stability Assay
• Preparation of working solutions: 10 mM stock solutions of test compound and positive control were prepared in DMSO. In separate conical tubes, the 10 mM solution of test compound and the positive control were diluted to 100 μM by combining 198 μL of 50% acetonitrile/50% water and 2 μL of 10 mM stock.
Data Analysis: All calculations were carried out using Microsoft Excel. Peak areas were determined from extracted ion chromatograms. In vitro half-life (t1/2) of parent compound was determined by regression analysis of the percent parent disappearance vs. time curve.
The in vitro half-life (in vitro t1/2) was determined from the slope value:
Conversion of the in vitro t1/2 (in min) into the in vitro intrinsic clearance (in vitro CLint, in μL/min/1×10^6 cells) was done using the following equation (mean of duplicate determinations):
V=incubation volume(0.2 mL);
N=number of hepatocytes per well(0.1×10^6 cells).

A short description of data set [4]: In vivo PK study in male CD1 mice. Particulars: mice; for AUC(0-t): read-out: AUCLast Mean; for half-life: read-out: T1/2 Mean (converted); for bioavailability: read-out: Bioavailability. How it is done:
as §1

Where [5] appears, read: male, Sprague Dawley, rat, plasma, 1 mg/kg IV.
[6] abbreviates: male, Sprague Dawley, rat, plasma, PO, dosage of 3 mg/kg.
The mark [7] stands for this setting: male, Sprague Dawley, rat, plasma, PO, dosage of 10 mg/kg.
The mark [8] stands for this setting: male, CD1, mouse, plasma, 1 mg/kg IV.
Setting [9] is: male, CD1, mouse, plasma, 10 mg/kg PO.

With `C[C@@H](CO)n1cnc2c(-c3cccc(F)c3)nc(-c3ccc(Cl)cc3)cc2c1=O` [Compound 7], in data set [1] (setting [5]), the C0 amounted to 212 ng/mL and the AUC(0-t) is 659 ng·h/mL. Also, the AUC(0-inf) in data set [1] (male, Sprague Dawley, rat, plasma, 1 mg/kg IV, read-out: AUCInf Mean) amounted to 1000 ng·h/mL. Besides, the half-life in data set [1] (male, Sprague Dawley, rat, plasma, 1 mg/kg IV, read-out: T1/2 Mean (converted)) was 5.31 h. Also, in data set [1] (setting [6]), the concentration peaked (Cmax) at 224 ng/mL, the Tmax amounted to 3.33 h, the AUC(0-t) amounted to 2400 ng·h/mL and the bioavailability came to 110%. For the same compound, in data set [1] (setting [7]), the Cmax amounted to 610 ng/mL, the Tmax turned out to be 3.33 h, the AUC(0-t) was 7820 ng·h/mL and the bioavailability worked out at 105%. The “CI Mean” value in data set [1] (1 mg/kg IV) was 295 mL/min/kg. Further, in data set [2], the Papp A→B at 2 h, 1 μM is less than 2 ×10⁻⁶ cm/s and the Papp B→A at 2 h, 1 μM was less than 2 ×10⁻⁶ cm/s. For the same compound, the Mouse hepatocyte clearance result in data set [3] is “++ (“++” indicates a CLint between 20 and 50 mL/min/Kg)”.
Consider `Cc1ccc(-c2cc3c(=O)n([C@@H](C)CO)cnc3c(-c3cccnc3)n2)cc1` [Compound 17, (S)-3-(1-hydroxypropan-2-yl)-8-(pyridin-3-yl)-6-(p-tolyl)pyrido[3,4-d]pyrimidin-4(3H)-one], for which, in data set [4] (setting [8]), the C0 came to 601 ng/mL, the AUC(0-t) is 231 ng·h/mL and the half-life was 0.504 h. For the same compound, in data set [4] (setting [9]), the Cmax amounted to 349 ng/mL, the time of peak concentration (Tmax) was determined as 0.417 h, the AUC(0-t) amounted to 497 ng·h/mL and the bioavailability turned out to be 21.6%. Also, the half-life in data set [4] (setting [9]) is 1.15 h. Also, the AUC(0-inf) in data set [4] (male, CD1, mouse, plasma, 10 mg/kg PO, read-out: AUCInf Mean) stood at 519 ng·h/mL. For the same compound, the “CI Mean” value in data set [4] (1 mg/kg IV) came to 1200 mL/min/kg. Moreover, in data set [2], the Papp A→B at 2 h, 1 μM is greater than 10 ×10⁻⁶ cm/s and the Papp B→A at 2 h, 1 μM lay in the range of 2 to 10 ×10⁻⁶ cm/s. The Mouse hepatocyte clearance result in data set [3] is “+ (“+” indicates an CLint above 50 mL/min/Kg)”.
Regarding `CC(C)(O)Cn1cnc2c(-c3cccnc3)nc(-c3ccc(Cl)cc3)cc2c1=O` [Compound 18], in data set [4] (setting [8]), the C0 amounted to 333 ng/mL, the AUC(0-t) is 6770 ng·h/mL and the half-life was 20.7 h. In data set [4] (setting [9]), the Cmax amounted to 1310 ng/mL, the Tmax amounted to 6.67 h, the AUC(0-t) is 45800 ng·h/mL and the bioavailability is 67.6%. In addition, the half-life in data set [4] (setting [9]) was 23.4 h. The “CI Mean” value in data set [4] (1 mg/kg IV) stood at 33.7 mL/min/kg. Also, in data set [2], the Papp A→B at 2 h, 1 μM was in the range of 2 to 10 ×10⁻⁶ cm/s and the Papp B→A at 2 h, 1 μM fell in the range of 2 to 10 ×10⁻⁶ cm/s. In data set [3], the Mouse hepatocyte clearance result is recorded as “+ (“+” indicates an CLint above 50 mL/min/Kg)”.
Take `Cn1cc(-c2nc(-c3ccc(Cl)cc3)cc3c(=O)n(CC(C)(C)O)cnc23)cn1` [Compound 21]: in data set [2], the Papp A→B at 2 h, 1 μM was in the range of 2 to 10 ×10⁻⁶ cm/s and the Papp B→A at 2 h, 1 μM is less than 2 ×10⁻⁶ cm/s. Moreover, in data set [3], the Mouse hepatocyte clearance result was “++ (“++” indicates a CLint between 20 and 50 mL/min/Kg)”.
Turning to `C[C@@H](CO)n1cnc2c(-c3cccnc3)nc(-c3ccc(OC(F)(F)F)cc3)cc2c1=O` [Compound 22], in data set [2], the Papp A→B at 2 h, 1 μM is 2 to 10 ×10⁻⁶ cm/s and the Papp B→A at 2 h, 1 μM fell in the range of 2 to 10 ×10⁻⁶ cm/s. For the same compound, the Mouse hepatocyte clearance result in data set [3] is “++ (“++” indicates a CLint between 20 and 50 mL/min/Kg)”.
In the case of `C[C@@H](CO)n1cnc2c(-c3cccnc3)nc(-c3ccc(C4CC4)nc3)cc2c1=O` [Compound 74], in data set [2], the Papp A→B at 2 h, 1 μM was in the range of 2 to 10 ×10⁻⁶ cm/s and the Papp B→A at 2 h, 1 μM was greater than 10 ×10⁻⁶ cm/s. The Mouse hepatocyte clearance entry in data set [3] is listed as “+ (“+” indicates an CLint above 50 mL/min/Kg)”.

The term Cmax denotes the peak of the concentration-time curve. For orientation: Tmax means the time at which the peak concentration occurs.
